From a melting point compilation (Tetko et al.; mined from patent text by program, amines drawn as free bases though some values may be those of a salt) come the findings set out here.

A value given as a limit tells only on which side of the number the result lay.

For orientation: melting point means the temperature, or range, at which the solid turns liquid.

In the case of `O=C(c1ccn2c1CSC2c1cccnc1)c1cn(Cc2nnn[nH]2)c2cc(-c3ccc(F)cc3)ccc12` (configuration not stated), the melting point fell in the range of 110 to 118 °C.

`COc1ccc(CCc2ccc(NC=O)cc2)cc1OC` displayed a melting point of 128 to 130 °C.

For the molecule `CCCCCCCCCCCCCCCCNc1ccc(C(=O)NCC(=O)OCC)cc1`, the melting point lay within 97.5 to 99.5 °C.

Consider `Cc1ccc(Sc2c(-c3ccc(S(C)(=O)=O)cc3)cnn(-c3cccc(Cl)c3)c2=O)cc1`, for which the melting point came to 178 °C.

For the molecule `NS(=O)(=O)c1cccc(-c2noc(-c3cnn4ccc(-c5ccc(Cl)cc5)nc34)n2)c1`, the melting point was determined as 223 °C.

In the case of `COc1cccc(-c2ccc(C(=O)N(Cc3cccc(O)c3)C3CC3)s2)c1F`, the melting point was found to be 150 °C.

Turning to `Cc1nc2ccc(S(=O)(=O)n3c(COC(C)C(=O)O)cc4cc(C(F)(F)F)ccc43)cc2s1` (configuration not stated), the melting point is 146 to 148 °C.

`CC1(c2ccc(-c3ccc(F)cc3)cc2)CC(=O)NN1` (configuration not stated) returned a melting point of 194 to 196 °C.

`CCc1nc2c(C)cc(C)nc2n1Cc1ccc(-c2ccccc2C(=O)NN)cc1` showed a melting point of 139 to 142 °C.

In turn, `COc1cc([C@@H](O)[C@@H](C)N2CCC(O)(c3ccccc3)CC2)ccc1OCc1ccccc1` (relative stereo) displayed a melting point of 131 to 132 °C.

`O=c1c2[nH]cnc2n(CC2CC2)c(=O)n1CC1CC1` gave a melting point of 203 °C.

`CC(C)(C)OC(=O)N1CC2CCCCC(C1)C2C=O` (configuration not stated): the melting point lay within 55 to 60 °C.

`Ic1ccc(CCN2CCOCC2)cc1` yielded a melting point of 64 to 67 °C.

Turning to `Cc1cccc(NC(=O)CCCCl)c1CNc1cccn2c(C)c(C)nc12`, the melting point lay within 138 to 140 °C.

`CC(C)(C)c1cc(=S)cc(C(C)(C)C)o1` had a melting point of 108 °C.

Consider `COC(C)=CC(=O)Nc1cccc(NC(C)=O)c1`, for which the melting point amounted to 167 °C.

In the case of `COC(=O)c1cc2c3ccccc3n(C(C)=O)c2s1`, the melting point lay within 179 to 181 °C.

`Cc1cccc2c1C(=O)N(C)Cc1c(I)ncn1-2` registered a melting point of 106 to 108 °C.

Turning to `COC(=O)CCCc1cc2nc(Cl)ccc2n1S(=O)(=O)c1cccc(-c2nccs2)c1`, the melting point fell in the range of 82 to 86 °C.

For `CCC(C)(C)NC(=O)C(=O)c1ccccc1`, the melting point lay in the range of 29 to 30 °C.

Consider `Oc1ccc(Nc2nc(Cl)nc(Cl)n2)cc1Cl`, for which the melting point stood at 180 °C.

On to `CC(C)n1nc(-c2c(OCc3ccccn3)nc(N)nc2-c2ccccc2)ccc1=O`, for which the melting point was 177 to 178 °C.

With `CCOC(=O)Cn1c(CC)nc2c(OCc3ccc(OC)cc3)cccc21`, the melting point amounted to 112 °C.

Molecule `CCOC(=O)CCCCCCCn1cnc(-c2ccccc2)c1` yielded a melting point of 56 to 57 °C.

Take `O=C(Nc1ccccc1)Nc1nc(=O)n(S(=O)(=O)c2ccccc2)cc1F`: the melting point is 210 to 214 °C.

`CC(C)N(CCC(c1ccccc1)c1cc(Br)ccc1OCc1ccccc1)C(C)C` (configuration not stated) came in with a melting point of 52 to 56 °C.

The molecule `CCN1C(=O)C(C)(C)C(=O)N(C)c2cc(OCCCn3cc(I)c(=O)c4ccccc43)ccc21` displayed a melting point of 97 to 106 °C.

On to `COC(=O)c1ncoc1CCNC(=O)OCc1ccccc1`, for which the melting point was in the range of 68 to 70 °C.

`CC(=O)OC1CCC2C3CCc4cc(O)c(C=O)cc4C3CCC12C` (configuration not stated) gave a melting point of 184 °C.

Consider `Cc1cc(Cc2ccc(NC(=O)N(C)C)cn2)n(C)c1C(=O)c1ccc(Cl)cc1`, for which the melting point is 227 to 230 °C.

Consider `Cc1nnc(O[Si](C)(C)C)nc1O[Si](C)(C)C`, for which the melting point worked out at 43 °C.

The molecule `O=[N+]([O-])c1cc(-n2ccnc2)ccc1Sc1cccc2cnccc12` had a melting point of 187 to 189 °C.

On to `O=CN1C(=O)c2ccccc2OC1C(Cl)(Cl)Cl` (configuration not stated), for which the melting point was determined as 114 °C.

Regarding `Cc1noc(C)c1C(=O)Nc1ccc(-n2nc(C(F)(F)F)cc2C2CC2)cc1`, the melting point was in the range of 170 to 172 °C.

For the molecule `CC[Si](C)(C)CCCCCCCCC1=C(O)C(=O)c2ccccc2C1=O`, the melting point is 39 to 41 °C.

Consider `O=C(O)CC[C@H](NC(=O)N1CCc2cc(S(=O)(=O)N3CCN(c4cccc(Cl)c4)CC3)ccc21)C(=O)O`, for which the melting point was 181 to 182 °C.

In the case of `CC(C)(C)c1cc(CON2C(=O)COc3ccc(C=C4SC(=S)NC4=O)cc32)cc(C(C)(C)C)n1`, the melting point is greater than 300 °C.

`Fc1ccc(-c2cnc3nc(C(F)(F)F)cnn23)cc1-c1ccccn1` came in with a melting point of 128 to 131 °C.

With `CC1(C)C=C(N2CCCS2(=O)=O)c2cc(S(C)(=O)=O)ccc2O1`, the melting point lay in the range of 226 to 227 °C.

`CCC1(CCCCN2CCc3sccc3C2)C(=O)Nc2ccc(C)cc21` (configuration not stated) had a melting point of 138 to 140 °C.

Molecule `Cc1nc(C)c(Cl)c(NCc2nccc(SCCCN3CCN(CC4CN(Cc5ccncc5)C(=O)O4)CC3)c2C)n1` (configuration not stated) returned a melting point of 123 to 126 °C.

The molecule `COC1=C(OC)C(=O)C2=C(CCC(CCOc3ccc(C#N)cc3)CC2)C1=O` came in with a melting point of 105 to 107 °C.

For `CCC[C@@H](CC1(C(=O)Nc2nnc(CC)s2)CCCC1)C(=O)O`, the melting point fell in the range of 130 to 136 °C.

With `Cc1ccc2c(c1)CSc1nnc(C)n1-2`, the melting point was 168 °C.

`CCCc1nc2ccccc2c(C(=O)O)c1Oc1ccc(-c2ccccc2C(N)=O)cc1` had a melting point of 230 °C.

Consider `CN(C)C(=O)c1ccccc1Sc1ccc(Cl)cc1C=O`, for which the melting point was in the range of 87 to 88 °C.

Turning to `COc1cc2c(cc1Br)C=C(C)N(C(=O)C1CC1)N=C2c1ccc(N)cc1`, the melting point is 224 to 226 °C.

On to `COC(=O)[C@H](Cc1cc(F)cc(F)c1)NC(=O)OC(C)(C)C`, for which the melting point was 81 °C.

Regarding `CCCn1c(=O)[nH]c2ccc(C(=O)c3ncc4ccccn34)cc2c1=O`, the melting point was determined as 304 °C.

`COc1ccc(OCCCC2CCN(c3ccc(Cl)nn3)CC2)c(Cl)c1` had a melting point of 101 °C.

As to `C=C1SC(=O)N(c2ccc3cc(-c4cc5c(c(-c6cccnc6)c4)OCO5)ccc3c2)C1=O`, the melting point is 298 to 300 °C.

Turning to `Nc1cc2c(Nc3ccc(F)c(Cl)c3)ncnc2cc1OCC1CCCO1` (configuration not stated), the melting point lay within 162 to 164 °C.

`CCOC(=O)C(=CNc1cccc(OCC)n1)C(=O)OCC` showed a melting point of 58 to 60 °C.

`CCC1=C(O)C(=O)CC1` displayed a melting point of 39 to 41 °C.

Turning to `CCCCN1CCCN(c2ccccc2)c2cc(Cl)ccc21`, the melting point is 159 to 161 °C.

Turning to `CNC(=NCCn1cc(Cn2ccnc2)c2ccccc21)NC#N`, the melting point was in the range of 172 to 173 °C.

On to `Cc1cccc(Cn2cc(-c3cn(C4CC(O)C(CO)O4)c(=O)[nH]c3=O)nn2)c1` (configuration not stated), for which the melting point lay in the range of 132 to 133 °C.

On to `O=c1[nH]c2nc3ccccc3n2c(=O)n1C1CCCCC1`, for which the melting point turned out to be 335 °C.

For the molecule `O=C(NNc1ccccc1Cl)c1ccccc1F`, the melting point was 105 to 107 °C.

Regarding `O=C1CCC2=C(CCc3cc(Cl)cc(Cl)c32)N1`, the melting point lay in the range of 212 to 214 °C.

The molecule `O=S(=O)(c1ccc(Cl)cc1)N1CCC2(C=Cc3ccccc32)CC1` had a melting point of 179 to 181 °C.

`O=C(c1nn(-c2ccc(F)cc2F)c2c1C1CCC2C1)N1CCc2ccccc2C1` (configuration not stated): the melting point lay in the range of 134 to 138 °C.

As for `CCCCCCCCCCC[C@@H](C[C@@H]1OC(=O)[C@H]1CCCCCC)OC(=O)[C@H](CC(C)C)NC=O`, the melting point lay within 44 to 45 °C.

Regarding `CC(=O)C1=C(C)NC(=O)N(C(C)=O)C1c1ccccc1` (configuration not stated), the melting point was in the range of 181 to 183 °C.

`O=C(Oc1ccccc1)N1C(C2=COc3ccccc3O2)=COc2cccnc21` registered a melting point of 142 °C.

In the case of `CCCC(=O)Oc1ccc2sc(S(N)(=O)=O)nc2c1`, the melting point worked out at 132 °C.

`CCOC(=O)c1nc(CCl)n(-c2ccc(Br)cc2C(=O)c2ccccn2)n1` displayed a melting point of 96 to 97 °C.

As to `Brc1ccc(OCCC(c2ccccc2)c2ccccc2)cc1`, the melting point was in the range of 70 to 71 °C.

The molecule `Cn1c(C(F)(F)F)c(-c2ccc(C[C@H](NC(=O)c3c(F)cccc3C(F)(F)F)C(=O)O)cc2)c(=O)n(C)c1=O` yielded a melting point of 122 to 125 °C.

Molecule `CC(C)C(NC(=O)CCc1ccccn1)C(=O)NC(Cc1ccccc1)C(O)C(Cc1ccccc1)NC(=O)C(NC(=O)CCc1ccccn1)C(C)C` (configuration not stated) showed a melting point of 216 to 218 °C.

For the molecule `CC(=C(c1ccccc1)c1ccccc1)P(C(C)(C)C)C(C)(C)C`, the melting point lay in the range of 130 to 133 °C.

As for `CCN1CCCC1CNC(=O)c1cc(S(C)(=O)=O)c(N)cc1OC` (configuration not stated), the melting point lay within 151 to 152 °C.

Take `Cn1ncc(C(=O)N2CCOCC2)c1C(=O)Nc1ccn2nc(N3CCCC3)nc2c1`: the melting point was in the range of 194 to 197 °C.

`CCN(CC)C(=O)c1ccc2c(c1)C(=C(Cl)Cl)OC(C(Cl)(Cl)Cl)O2` (configuration not stated) yielded a melting point of 123 to 124 °C.

Consider `COC(=O)c1c(NCC(C)C)n[nH]c1C`, for which the melting point lay in the range of 100 to 103 °C.

Consider `CC1=C(C(N)=O)C(c2ccccc2)(N2CCN(c3ccc(F)cc3C)CC2)NO1` (configuration not stated), for which the melting point fell in the range of 139 to 141 °C.

With `COC(=O)C(Cl)Cc1ccc(O)cc1` (configuration not stated), the melting point lay within 57 to 59 °C.

In the case of `CC(C)C1NC(=O)CN1C(=O)CNC(=O)CN1CCCC1=O` (configuration not stated), the melting point was in the range of 104 to 106 °C.

Regarding `CC(C)(C)OC(=O)N1CCC(NC(=O)c2ccc(Cn3cccn3)cc2)CC1`, the melting point lay within 168 to 169 °C.

In turn, `O=C(C1=C(O)CCS1)c1nnn(Cc2ccccc2)c1Cl` gave a melting point of 118 to 120 °C.

On to `O=S(=O)(c1ccc(I)cc1)N1CCC(Br)(Br)C(c2ccc(Cl)c(C(F)(F)F)c2)=N1`, for which the melting point lay in the range of 148 to 150 °C.

For `Cn1c(=O)c2c(Cl)cccc2n2cnc(C(=O)n3ccnc3)c12`, the melting point lay within 242 to 243 °C.

Molecule `CCOC(=O)C1=C(COCc2nc(CCN)cs2)NC(C)=C(C(=O)OC)C1c1cccc(Cl)c1Cl` (configuration not stated) came in with a melting point of 110 to 112 °C.

On to `Cc1nc2nccc(-c3cccnc3)n2n1`, for which the melting point is 244 to 245 °C.

With `O=C(c1cc(-c2ccccc2)c(N2CCOCC2)s1)c1ccc(Cl)cc1Cl`, the melting point is 198 to 199 °C.

Molecule `N#Cc1ncn2c(C(F)(F)F)cc(-c3ccccc3)nc12` gave a melting point of 202 °C.

Consider `CC(C)Cn1cnc2c(N)nc3ccc(-c4ccc(C(C)(C)C)cc4)cc3c21`, for which the melting point was greater than 250 °C.
